Measurements: PubChem BioAssay AID743330 (NMMLSC, 2014)

Columns and labels:
Assay in all cases: fluorescent GTP concentration effect on GTPase potency – biochemical, four GTPases, bead flow cytometry, mechanism study, profiling panel (AID 743330)
Details in all cases: bead-based flow cytometry, fluorescent GTP binding to GTPases
Ras = target: Ras
Cdc42 mutant = target: Cdc42 mutant
Rab7 = target: Rab7
Cdc42 = target: Cdc42

Work on `CC1(C)Cc2c(sc(NC(=S)NC(=O)c3ccc(F)cc3)c2C(=O)O)CO1` yielded an EC50 (Ras; EC50 at 25 nM fluorescent GTP) of 66 nM, an EC50 (Ras; EC50 at 100 nM fluorescent GTP) of 444 nM and an EC50 (Cdc42 mutant; EC50 at 25 nM fluorescent GTP) of 120 nM. The EC50 (Cdc42 mutant; EC50 at 100 nM fluorescent GTP) was 977 nM, the EC50 (Rab7; EC50 at 25 nM fluorescent GTP) was 55 nM and the EC50 (Rab7; EC50 at 100 nM fluorescent GTP) was 479 nM. It also gave an EC50 (Cdc42; EC50 at 25 nM fluorescent GTP) of 248 nM and an EC50 (Cdc42; EC50 at 100 nM fluorescent GTP) of 1040 nM.

With `CCC1(C)Cc2c(sc(NC(=S)NC(=O)c3ccccc3)c2C(=O)O)CO1` (stereo not given) the EC50 (Ras; EC50 at 25 nM fluorescent GTP) was 6 nM, the EC50 (Ras; EC50 at 100 nM fluorescent GTP) was 23 nM and the EC50 (Cdc42 mutant; EC50 at 25 nM fluorescent GTP) was 12 nM. The EC50 (Cdc42 mutant; EC50 at 100 nM fluorescent GTP) was 27 nM, the EC50 (Rab7; EC50 at 25 nM fluorescent GTP) was 8 nM and the EC50 (Rab7; EC50 at 100 nM fluorescent GTP) was 29 nM. The EC50 (Cdc42; EC50 at 100 nM fluorescent GTP) was 20 nM.
